Test results taken from PMC6571133, “Capsazepine prolongation of the duration of lidocaine block of sensory transmission in mice may be mediated by modulation of HCN channel currents” (PeerJ, 2019).

Legend:
[1] = molecular target: mHCN1 (Mouse HCN1) (Mus musculus, UniProt O88704); experiment: whole-cell patch clamp of Ih in transfected HEK […] cells; format: cell-based
[2] = molecular target: T1, mHCN2 (Mouse HCN2) (Mus musculus, UniProt O88703); experiment: as above; format: cell-based
T1 sequence (O88703 1-863): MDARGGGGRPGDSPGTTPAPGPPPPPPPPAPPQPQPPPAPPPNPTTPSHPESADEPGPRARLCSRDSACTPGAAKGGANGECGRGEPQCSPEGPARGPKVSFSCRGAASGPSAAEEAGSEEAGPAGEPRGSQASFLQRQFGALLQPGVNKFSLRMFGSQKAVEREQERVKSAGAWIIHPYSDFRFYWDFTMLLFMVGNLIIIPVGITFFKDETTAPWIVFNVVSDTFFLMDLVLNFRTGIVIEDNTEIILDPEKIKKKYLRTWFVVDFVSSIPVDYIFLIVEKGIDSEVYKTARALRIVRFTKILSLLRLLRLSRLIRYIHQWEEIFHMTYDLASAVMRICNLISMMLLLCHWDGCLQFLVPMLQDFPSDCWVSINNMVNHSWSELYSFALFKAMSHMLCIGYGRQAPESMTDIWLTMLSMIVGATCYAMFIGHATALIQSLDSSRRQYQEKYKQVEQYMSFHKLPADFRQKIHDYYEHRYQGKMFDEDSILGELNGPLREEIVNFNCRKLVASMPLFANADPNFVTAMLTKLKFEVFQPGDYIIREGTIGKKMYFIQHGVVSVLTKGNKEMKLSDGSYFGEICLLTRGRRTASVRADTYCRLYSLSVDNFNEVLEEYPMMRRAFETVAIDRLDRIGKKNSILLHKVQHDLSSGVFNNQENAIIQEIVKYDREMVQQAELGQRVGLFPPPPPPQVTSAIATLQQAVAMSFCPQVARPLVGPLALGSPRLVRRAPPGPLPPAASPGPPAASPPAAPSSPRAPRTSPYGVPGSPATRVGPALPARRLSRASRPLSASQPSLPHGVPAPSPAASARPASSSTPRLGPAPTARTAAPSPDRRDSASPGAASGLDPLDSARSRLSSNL

Chain of mHCN1 (Mouse HCN1) (O88704 whole entry): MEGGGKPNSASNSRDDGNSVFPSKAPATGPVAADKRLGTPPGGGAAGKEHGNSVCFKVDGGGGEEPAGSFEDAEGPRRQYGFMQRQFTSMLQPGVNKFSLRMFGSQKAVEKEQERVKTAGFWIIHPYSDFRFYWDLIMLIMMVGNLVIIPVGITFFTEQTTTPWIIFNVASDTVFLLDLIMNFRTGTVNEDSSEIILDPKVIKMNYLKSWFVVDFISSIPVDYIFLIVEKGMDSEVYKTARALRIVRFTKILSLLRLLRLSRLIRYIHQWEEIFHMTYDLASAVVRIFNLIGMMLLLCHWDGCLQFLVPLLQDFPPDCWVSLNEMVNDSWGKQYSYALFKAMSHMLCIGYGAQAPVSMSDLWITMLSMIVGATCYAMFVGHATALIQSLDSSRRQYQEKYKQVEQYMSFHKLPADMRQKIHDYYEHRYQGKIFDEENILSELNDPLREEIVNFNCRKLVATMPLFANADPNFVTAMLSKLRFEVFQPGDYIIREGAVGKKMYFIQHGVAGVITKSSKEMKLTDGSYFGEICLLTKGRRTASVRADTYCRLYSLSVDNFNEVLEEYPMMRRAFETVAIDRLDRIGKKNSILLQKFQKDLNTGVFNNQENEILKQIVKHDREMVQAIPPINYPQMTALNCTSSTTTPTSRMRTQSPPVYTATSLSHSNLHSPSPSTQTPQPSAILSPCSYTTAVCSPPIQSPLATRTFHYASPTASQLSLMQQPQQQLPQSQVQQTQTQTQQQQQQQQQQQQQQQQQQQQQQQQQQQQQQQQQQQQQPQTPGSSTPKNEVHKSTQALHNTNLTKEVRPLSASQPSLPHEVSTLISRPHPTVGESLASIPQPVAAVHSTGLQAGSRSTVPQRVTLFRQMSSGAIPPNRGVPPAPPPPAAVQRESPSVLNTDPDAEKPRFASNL

Compound: Oc1cc2c(cc1O)CN(C(=S)NCCc1ccc(Cl)cc1)CCC2 [CPZ, Capsazepine]
- IC50 [1]: 8.2 ± 0.3 µM
- IC50 [2]: 9.6 ± 0.4 µM
